The record followed here is US20210292741A1, “COMBINATION THERAPEUTICS USING TUMOR TREATING FIELDS (TTFIELDS)” (THE BOARD OF REGENTS OF THE UNIVERSITY OF TEXAS SYSTEM, priority 2020, published 2021).

Molecules are shown by their SMILES.

This assay deals with H1299, A549, H157, and H4006 cells. As to the kind of experiment: clonogenic survival assay, TTFields combined with E2F and CDK 4/6 inhibitors. The assay is classed as cell-based, Human. As to conditions: single inhibitor plus TTFields, Highest Single Agent approach.

Protocol: FIGS. 6A-6B provide the results of exemplary clonogenic survival assays in four lung cancer cells lines—H1299, A549, H157, and H4006 cells—under various conditions testing combinations of TTFields with agents that dysregulate E2F signaling or CDK4/6 signaling at 24, 48, and 72 hours. […] Cell survival after increased exposure to TTFields alone, or in combination with a E2F inhibitor, a CDK 4/6 inhibitor or to a combination of E2F inhibitor and CDK 4/6 inhibitor is shown.
Human NSCLC cell lines (H157, H4006, A549, and H1299) were purchased from American Tissue Culture Collection. All these cell lines were grown in RPMI medium supplemented with 10% (v/v) fetal bovine serum (Atlanta Biologicals, Flowery Branch, Ga., USA) and penicillin/streptavidin (final concentration 50 μg/ml; Sigma-Aldrich, St. Louis, Mo., U29SA). All cells were grown at 37° C. in a humidified incubator constantly supplied with 5% CO2.
The inovitro system (NovoCure Ltd, Haifa, Israel) was used to generate TTFields that use two pairs of electrodes printed perpendicularly on the outer walls of a Petri dish composed of high dielectric constant ceramic (lead magnesium niobate-lead titanite (PMN-PT)). […] The temperature was measured by 2 thermistors (Omega Engineering, Stamford, Conn., USA) attached to the ceramic walls. […]

For the compound `CCOc1ccc(C(Nc2ccccn2)c2ccc3ccc(C)nc3c2O)cc1C` (stereo not shown) [HLM006474], the “cell killing in combination with TTFields as compared to TTFields alone” value is “enhanced cell killing synergistically”.
